Experimental data reported in patent US20120114596A1, “TSLP PROMOTES IMMUNE EVASION AND PERSISTENCE OF VIRUSES” (priority 2009, published 2012).
Entries after “also recorded” stand apart in the source; their conditions may differ.

Legend:
TSLP expression = settings: cited from earlier work
DCs [1] = assay: DC motility in micro-channel system (confined environment); assay type: cell-based, human
Source text: A tissue represents a confined environment for cell migration (Irimia et al., Lab Chip, 2007, 7, 1783-1790). Cells may be “trapped” in narrow spaces, being forced to pass through areas of diverse densities. In order to mimic such in vivo situation, a micro-channel system was used. This system allows quantifying diverse parameters to define the cell movement and to restrain the direction of the mobile cells.
The microfluidic device was fabricated in PDMS (Whitesides G. M., E., O., Takayama S., X., J. & E, I. D. Ann Rev Biomed Eng, 2001 3, 335). The PDMS piece, with embedded microchannels and holes for the inlet and outlet ports, and a glass Iwaki chamber (Milian) were activated in a plasma cleaner (PDC-32G Harrick) and bonded to each other. The chambers were left under strong vacuum for 5 min in the plasma cleaner and plasma was turned on to render the top surface of the PDMS and the inlet and outlet holes hydrophilic. Fibronectin solution at 50 μg/ml was placed on top of the inlet and outlet ports. The solution spontaneously invaded the channels and all air bubbles were resorbed into the PDMS due to the previous vacuum treatment. Fibronectin was incubated for 1 h at room temperature, then washed with PBS then replaced by cell culture medium. The cells were concentrated and micropipette tips containing the cells were inserted in the inlet port. Cells fell inside the port, bound to the bottom coverslip and started migrating. They entered the channels spontaneously, without any mechanical or chemical stimulation.
Phase contrast […], using an automated microscope (Nikon ECLIPSE TE1000-E, and Olympus X71, with a Marzhauser motorized stage and an HQ2 Roper camera) equipped with an environmental chamber for temperature, humidity and CO2 (Life Imaging Services). Cells remained alive and motile during the entire period of recording.
To analyse the importance of myosin II in DCs migration, cells were pre-treated with […] blebbistatin and then concentrated and inserted in the microchannels.

DCs [2] = assay: DC polarization / cytoskeleton architecture by epifluorescence microscopy; assay type: cell-based, human
CD11c+ DCs = assay type: cell-based, human
DCs [3] = assay: DC activation by surface expression of CD40, CD80, CD86, OX40L
naive CD4+ T cells = assay: Priming of naive CD4+ T cells by activated DCs, T cell cytokine profile; assay type: cell-based, human; settings: DC:T 1:5, 5-6 days, re-stimulation
Procedure: After 24 h of culture, stimulated CD11c^+ DCs were collected, washed, and co-cultured with allogenic naïve CD4^+ T cells in round-bottomed plates 96-well culture plates (Falcon) at a 1:5 DC: T cell ratio in Yssel's medium (kind gift of Hans Yssel) containing 10% FCS (Hyclone). Peripheral blood naïve CD4^+ T cells were isolated by using CD4 T cell isolation kit II (Miltenyi Biotec) followed by staining for CD45RO-FITC, CD45RA-PE, CD4-APC, and cell sorting of CD45RA^+, CD4^+, CD45RO^− cells (purity>99%) with a FACSAria (BD Bioscience). Standard Th subsets were generated in presence of Dynabeads CD3/CD28 T cell expander (1 bead per cell) (Invitrogen) and 10 ng/ml IL-12 (R&D Systems) for Th1, 25 ng/ml IL-4 (R&D Systems) for Th2 and in absence of any polarizing cytokine for Th0.
After 5-6 days, cells were harvested, extensively washed and viability was determined by trypan blue exclusion. […] Cytokines in culture supernatants were measured by cytometric bead assay (CBA) Flex Sets (BD Bioscience) according to the manufacturer's instruction. IFN-γ-, IL-4-, IL-10-, TNF-producing cells were analysed by intracellular cytokine staining after addition of 10 μg/ml Brefeldin during the last 3 h of re-stimulation. […] Cells were stained with anti-IFN-γ FITC, anti-IL-4 PE, anti-IL-10 PE, anti-TNF PE (BD Pharmingen) washed and then analysed by flow cytometry (FACScan Becton Dickinson).

Langerhans cells (LC) = assay: Epidermal explant model of LC emigration; assay type: cell-based, human; settings: FIGS. 2B and C
Source text: Next, epidermal explants were used as a global model to study the emigration of LC.

Compound: c1ccc2ncncc2c1 [quinazoline]
- regulation of TSLP expression (TSLP expression): negative regulators of TSLP expression

Compound: Cc1ccc2c(c1)C(=O)C1(O)CCN(c3ccccc3)C1=N2 (centres unmarked) [blebbistatin, reference compound]
- effect on TSLP-induced DC entry into micro-channels (DCs [1]; blebbistatin 50 nM pre-culture): significantly inhibited
- morphology of TSLP-DCs under myosin II inhibition (DCs [2]; TSLP with 20 nM blebbistatin, 12 h): extremely elongated cellular shape
- blebbistatin dose inhibiting TSLP-induced DC migration (CD11c+ DCs): 20 nM

Compound: CC1=C(/C=C/C(C)=C\C=C\C(C)=C\C(=O)O)C(C)(C)CCC1 [9-cis-retinoic acid]
- regulation of TSLP expression (TSLP expression): negative regulators of TSLP expression

Compound: TSLP: cytokine of the IL-7 family produced by epithelial cells; recombinant from R&D Systems
- DC activation based on surface CD40, CD80 and CD86 (DCs [3]; 24 h of culture): strong up-regulation
- surface OX40-ligand (OX40L) expression on DC (DCs [3]; 48 h of culture): up-regulation
- T cell cytokine profile induced by activated DC (naive CD4+ T cells): Th2 profile
- increase in capacity of DCs to enter micro-channels vs control medium (DCs [1]; 3 h time-lapse, n=3): 4 fold
- median velocity of DC in micro-channels vs medium (DCs [1]; DC pre-cultured in medium or TSLP): no significant difference
- DC polarization (actin cytoskeleton morphology) (DCs [2]): extremely polarized
- migration of CD1a+ Langerin+ TSLP-receptor+ CD80+ cells from epidermal explants (Langerhans cells (LC)): significantly increased; also recorded: more efficient than TNFa
- DC migration in transwell (CD11c+ DCs): highly efficient for migration
- time after TSLP exposure at which migration started (CD11c+ DCs): 3 h
